The results in this text go back to ChEMBL document CHEMBL1123772, “2,4-Diamino-6,7-dimethoxyquinazolines. 2. 2-(4-Carbamoylpiperidino) derivatives as alpha 1-adrenoceptor antagonists and antihypertensive agents” (J Med Chem, 1987).

Activity calls are given as the source filed them. The calls are words filed in the database; no cut-off is given here. Some results are limits rather than exact numbers.

Assay [1] concerns the target Adrenergic receptor alpha-2 (Rattus norvegicus) (UniProt P22086+P19328+P22909). The assay is described as follows: In vitro binding affinity determined for alpha-2 adrenergic receptor by the percentage displacement of [3H]- clonidine at 10e-6 M; Not active :Less than 50% activity. Format: protein assay. (In a radioligand displacement assay an active substance lowers the binding of a labelled ligand.)

Assay [2] concerns the target T1, Adrenergic receptor alpha-1 (Rattus norvegicus, UniProt P15823+P23944+P43140).
T1 sequence (P15823 whole entry): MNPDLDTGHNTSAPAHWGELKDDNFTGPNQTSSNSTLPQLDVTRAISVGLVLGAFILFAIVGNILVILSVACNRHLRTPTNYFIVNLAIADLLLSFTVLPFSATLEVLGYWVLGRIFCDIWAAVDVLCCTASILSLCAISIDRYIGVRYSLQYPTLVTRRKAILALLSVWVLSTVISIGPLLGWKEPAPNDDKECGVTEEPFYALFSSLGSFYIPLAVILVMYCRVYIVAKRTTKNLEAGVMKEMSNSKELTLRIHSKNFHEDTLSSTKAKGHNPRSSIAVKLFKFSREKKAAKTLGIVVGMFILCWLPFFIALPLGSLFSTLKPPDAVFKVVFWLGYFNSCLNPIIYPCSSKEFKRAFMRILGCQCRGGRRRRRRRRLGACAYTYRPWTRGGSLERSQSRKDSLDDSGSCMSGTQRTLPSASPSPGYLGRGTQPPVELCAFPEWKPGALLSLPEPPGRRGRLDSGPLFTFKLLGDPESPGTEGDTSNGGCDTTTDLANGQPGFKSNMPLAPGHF
T1 sequence (P23944 whole entry): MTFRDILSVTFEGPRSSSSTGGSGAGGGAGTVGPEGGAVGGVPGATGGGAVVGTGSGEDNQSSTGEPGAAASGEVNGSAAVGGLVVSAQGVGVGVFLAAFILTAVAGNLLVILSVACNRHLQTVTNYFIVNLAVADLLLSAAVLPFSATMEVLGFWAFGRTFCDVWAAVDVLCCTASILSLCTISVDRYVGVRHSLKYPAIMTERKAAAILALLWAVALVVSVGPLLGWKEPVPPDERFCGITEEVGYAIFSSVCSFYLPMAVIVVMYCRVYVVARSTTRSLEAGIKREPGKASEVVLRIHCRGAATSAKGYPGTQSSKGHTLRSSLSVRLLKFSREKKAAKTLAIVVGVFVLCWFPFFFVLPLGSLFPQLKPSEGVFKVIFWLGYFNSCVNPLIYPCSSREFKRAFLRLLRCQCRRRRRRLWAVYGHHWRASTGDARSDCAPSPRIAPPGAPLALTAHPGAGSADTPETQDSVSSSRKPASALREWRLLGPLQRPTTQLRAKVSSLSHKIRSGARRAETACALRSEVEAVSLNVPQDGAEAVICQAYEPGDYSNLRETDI
T1 sequence (P43140 whole entry): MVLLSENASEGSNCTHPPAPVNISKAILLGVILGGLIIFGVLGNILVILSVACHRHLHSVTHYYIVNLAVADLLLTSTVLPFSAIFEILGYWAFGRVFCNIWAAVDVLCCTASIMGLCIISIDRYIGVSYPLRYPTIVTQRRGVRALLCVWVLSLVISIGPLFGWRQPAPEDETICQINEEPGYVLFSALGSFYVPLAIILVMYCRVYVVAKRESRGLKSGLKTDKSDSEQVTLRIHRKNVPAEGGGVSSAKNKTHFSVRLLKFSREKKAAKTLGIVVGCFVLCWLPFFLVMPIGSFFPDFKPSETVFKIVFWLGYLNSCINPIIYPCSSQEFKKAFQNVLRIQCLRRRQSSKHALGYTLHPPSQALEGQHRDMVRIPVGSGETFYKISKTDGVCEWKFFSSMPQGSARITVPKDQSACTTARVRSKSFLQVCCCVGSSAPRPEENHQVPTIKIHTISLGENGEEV
Kind of assay: In vitro binding affinity determined for alpha-1 adrenergic receptor by the displacement of [3H]- prazosin. Format: protein assay.

The test system of assay [3] is Rattus norvegicus. The assay is described as follows: Antihypertensive activity determined in spontaneously hypertensive rats(SHR) by percent reduction in blood pressure at 5 mg/kg peroral administration at 4 hour. The format is functional. The conditions noted are these: route oral.
Assay [4] deals with Adrenergic receptor alpha-2 (Oryctolagus cuniculus). Kind of assay: Competitive antagonist activity of the pre junctional alpha-2 adrenergic receptor mediated vasoconstrictor action of norepinephrine expressed as concentration producing 40% reduction in contractile response at 10e-5 M; No activity.
For assay [5], the target named is Adrenergic receptor alpha. Kind of assay: Tested for functional alpha-antagonist activity against norepinephrine in rabbit aorta and pulmonary artery. The format is tissue-based, Oryctolagus cuniculus.
Assay [6] has as its system Adrenergic receptor alpha-1 (Oryctolagus cuniculus).

In assay [1], `COc1cc2nc(N3CCC(C(=O)Nc4ccccc4)CC3)nc(N)c2cc1OC` yielded a Displacement of less than 50%. The inhibition constant (Ki) – broadly, the dissociation constant of the complex between target and ligand, obtained from inhibition or displacement – in assay [2] is 0.47 nM.

On to `COc1cc2nc(N3CCC(C(=O)NCCO)CC3)nc(N)c2cc1OC`, for which the Displacement in assay [1] is less than 50%. This molecule also yielded a Ki in assay [2] of 1.73 nM. In assay [3], the Reduction is 5%. In assay [1], `CCCCNC(=O)C1CCCN(c2nc(N)c3cc(OC)c(OC)cc3n2)C1` (centres undefined) displayed a Displacement of less than 50%. In assay [2], this molecule showed an inhibition constant (Ki) of 8.25 nM. For the molecule `CCN(CC)C(=O)C1CCCN(c2nc(N)c3cc(OC)c(OC)cc3n2)C1` (centres undefined), the Displacement in assay [1] was less than 50%. This molecule had a Ki in assay [2] of 116.73 nM. The molecule also came in with a Reduction in assay [3] of 16%. The molecule `CCNC(=O)C1CCN(c2nc(N)c3cc(OC)c(OC)cc3n2)CC1` returned a Displacement in assay [1] of less than 50%. The same molecule returned an inhibitory constant (Ki) in assay [2] of 1.64 nM. Turning to `COc1cc2nc(N3CCC(C(=O)NCCc4ccccc4)CC3)nc(N)c2cc1OC`, the Ki in assay [2] came to 0.1 nM. In the case of `CCCCNC(=O)COC1CCN(c2nc(N)c3cc(OC)c(OC)cc3n2)CC1`, in assay [2], the Ki came to 0.79 nM. This Ki lies about 7.9-fold higher than the previous one. In turn, `COc1cc2nc(N3CCC(C(=O)N4CCOCC4)CC3)nc(N)c2cc1OC` returned a Displacement in assay [1] of less than 50%. Besides, in assay [2], the Ki stood at 1.14 nM. In turn, `CCCCNC(=O)C1CCN(c2nc(N)c3cc(OC)c(OC)cc3n2)CC1` gave an inhibition constant (Ki) in assay [2] of 0.67 nM. `COc1cc2nc(N3CCC(C(=O)N(C)Cc4ccccc4)CC3)nc(N)c2cc1OC` yielded an inhibition constant Ki in assay [2] of 0.2 nM. For `COc1cc2nc(N3CCC(CC(=O)NCC4CC4)CC3)nc(N)c2cc1OC`, the EC40 entry in assay [4] was “inactive”. Further, the inhibition constant (Ki) in assay [2] is 1.08 nM. In addition, the pA2 (usually the negative logarithm of the molar antagonist concentration that doubles the agonist concentration needed for the same response) in assay [5] turned out to be 7.25. The EC40 in assay [6] was found to be 97 nM.

Regarding `COc1cc2nc(N3CCC(C(=O)NCC4CC4)CC3)nc(N)c2cc1OC`, the Displacement in assay [1] is less than 50%. This molecule also had an inhibition constant Ki in assay [2] of 0.9 nM. As to `COc1cc2nc(N3CCC(C(N)=O)CC3)nc(N)c2cc1OC`, the inhibition constant Ki in assay [2] came out at 1.46 nM. As for `COc1cc2nc(N3CCC(C(=O)NCCOc4ccccc4)CC3)nc(N)c2cc1OC`, in assay [2], the Ki is 0.42 nM. On the same count and under the same terms, next, `COc1cc2nc(N3CCC(C(=O)NCc4ccccc4)CC3)nc(N)c2cc1OC`: 0.22 nM.

As to `CCCNC(=O)CC1CCN(c2nc(N)c3cc(OC)c(OC)cc3n2)CC1`, the EC40 result in assay [4] was “inactive”. In assay [2], this molecule returned a Ki of 0.65 nM. The molecule further came in with a pA2 in assay [5] of 7.42. The EC40 in assay [6] stood at 18 nM.

Molecule `CCCCNC(=O)CCC1CCN(c2nc(N)c3cc(OC)c(OC)cc3n2)CC1` had an inhibitory constant (Ki) in assay [2] of 0.47 nM.

In the case of `CCN(CC)C(=O)C1CCN(c2nc(N)c3cc(OC)c(OC)cc3n2)CC1`, the Displacement in assay [1] is less than 50%. In addition, the Ki in assay [2] turned out to be 1.11 nM.

Turning to `CCCCNC(=O)CC1CCN(c2nc(N)c3cc(OC)c(OC)cc3n2)CC1`, the inhibition constant (Ki) in assay [2] amounted to 1.4 nM.

As for `COCCNC(=O)C1CCN(c2nc(N)c3cc(OC)c(OC)cc3n2)CC1`, the Displacement in assay [1] was less than 50%. This molecule registered a Ki in assay [2] of 1.13 nM. For `COc1cc2nc(N3CCC(C(=O)NC4CCCC4)CC3)nc(N)c2cc1OC`, in assay [1], the Displacement was less than 50%. The molecule further registered a Ki in assay [2] of 0.63 nM.
